Results reported in ChEMBL document CHEMBL2150974 (J Med Chem, 2012).
The source made the active and inactive calls.

Legend:
[1] = molecular target: T1, Mitogen-activated protein kinase 14 (Homo sapiens, UniProt Q16539); assay: Inhibition of p38alpha by immunosorbent based kinase assay
[2] = molecular target: T1, Mitogen-activated protein kinase 14; assay: Inhibition of p38alpha-dependent TNFalpha production in human whole blood
[3] = molecular target: RAC-alpha serine/threonine-protein kinase (Homo sapiens) (UniProt P31749); assay: Inhibition of AKT1 at 10 uM
Sequence of RAC-alpha serine/threonine-protein kinase (Homo sapiens) (P31749 whole entry): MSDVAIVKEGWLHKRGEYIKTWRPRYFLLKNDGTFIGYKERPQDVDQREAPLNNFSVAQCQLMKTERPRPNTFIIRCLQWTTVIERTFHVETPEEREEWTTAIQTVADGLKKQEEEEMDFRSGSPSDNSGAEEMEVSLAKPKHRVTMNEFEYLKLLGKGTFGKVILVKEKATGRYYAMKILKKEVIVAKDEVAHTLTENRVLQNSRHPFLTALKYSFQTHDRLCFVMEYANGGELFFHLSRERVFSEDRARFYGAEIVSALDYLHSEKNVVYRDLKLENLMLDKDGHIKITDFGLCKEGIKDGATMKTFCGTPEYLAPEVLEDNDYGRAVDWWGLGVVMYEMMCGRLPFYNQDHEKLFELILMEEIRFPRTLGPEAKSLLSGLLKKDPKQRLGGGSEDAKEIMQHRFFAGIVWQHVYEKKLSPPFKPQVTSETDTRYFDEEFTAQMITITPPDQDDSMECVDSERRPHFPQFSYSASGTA

[4] = molecular target: T2, Serine/threonine-protein kinase PLK4 (Homo sapiens) (UniProt O00444); assay: Inhibition of SAK at 10 uM
T2 sequence (whole entry): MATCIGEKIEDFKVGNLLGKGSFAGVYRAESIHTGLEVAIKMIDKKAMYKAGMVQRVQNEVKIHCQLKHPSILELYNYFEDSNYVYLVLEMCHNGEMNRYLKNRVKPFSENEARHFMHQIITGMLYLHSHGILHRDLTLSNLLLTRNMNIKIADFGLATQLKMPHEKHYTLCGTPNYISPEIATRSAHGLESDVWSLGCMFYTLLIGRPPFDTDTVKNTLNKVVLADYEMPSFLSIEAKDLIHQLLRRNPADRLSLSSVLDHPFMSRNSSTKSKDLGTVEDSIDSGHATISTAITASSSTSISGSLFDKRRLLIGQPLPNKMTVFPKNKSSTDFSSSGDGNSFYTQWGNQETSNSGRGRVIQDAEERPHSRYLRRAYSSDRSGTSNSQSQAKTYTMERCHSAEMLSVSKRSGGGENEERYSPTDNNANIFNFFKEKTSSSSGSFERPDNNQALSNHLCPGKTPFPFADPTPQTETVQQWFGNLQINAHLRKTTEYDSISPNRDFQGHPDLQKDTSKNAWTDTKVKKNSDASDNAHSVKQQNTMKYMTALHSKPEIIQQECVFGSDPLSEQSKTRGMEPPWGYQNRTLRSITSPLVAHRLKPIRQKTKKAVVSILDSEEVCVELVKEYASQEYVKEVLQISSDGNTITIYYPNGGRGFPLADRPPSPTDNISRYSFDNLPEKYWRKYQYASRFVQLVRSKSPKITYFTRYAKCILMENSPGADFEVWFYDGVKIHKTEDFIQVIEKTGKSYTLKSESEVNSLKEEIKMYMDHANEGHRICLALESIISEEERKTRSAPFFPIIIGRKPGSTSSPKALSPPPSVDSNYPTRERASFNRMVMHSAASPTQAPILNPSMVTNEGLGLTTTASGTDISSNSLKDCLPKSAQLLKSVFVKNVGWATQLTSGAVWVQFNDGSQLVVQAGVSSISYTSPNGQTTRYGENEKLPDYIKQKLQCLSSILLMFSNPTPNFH

[5] = molecular target: T3, NUAK family SNF1-like kinase 1 (Homo sapiens) (UniProt O60285); assay: Inhibition of ARK5 at 10 uM
T3 sequence (whole entry): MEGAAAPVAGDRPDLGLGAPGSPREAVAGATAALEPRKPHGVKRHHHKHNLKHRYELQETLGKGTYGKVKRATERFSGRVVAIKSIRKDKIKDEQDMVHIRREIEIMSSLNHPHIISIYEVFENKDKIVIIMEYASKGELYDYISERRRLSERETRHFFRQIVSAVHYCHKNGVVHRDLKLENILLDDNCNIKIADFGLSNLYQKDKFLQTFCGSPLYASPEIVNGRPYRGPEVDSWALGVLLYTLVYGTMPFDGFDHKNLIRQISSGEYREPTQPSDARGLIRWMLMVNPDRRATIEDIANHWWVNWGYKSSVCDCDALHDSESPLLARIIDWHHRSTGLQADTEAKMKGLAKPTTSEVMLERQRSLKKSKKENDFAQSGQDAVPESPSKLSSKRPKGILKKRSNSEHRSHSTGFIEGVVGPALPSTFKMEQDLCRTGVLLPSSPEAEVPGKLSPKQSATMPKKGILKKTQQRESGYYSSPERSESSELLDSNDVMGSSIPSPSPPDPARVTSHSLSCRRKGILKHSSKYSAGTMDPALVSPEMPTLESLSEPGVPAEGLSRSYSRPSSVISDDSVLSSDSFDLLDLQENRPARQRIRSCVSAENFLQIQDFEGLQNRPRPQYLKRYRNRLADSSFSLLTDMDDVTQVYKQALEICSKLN

[6] = molecular target: BDNF/NT-3 growth factors receptor (Homo sapiens) (UniProt Q16620); assay: Inhibition of TRKB at 10 uM
[7] = molecular target: Aurora kinase B (Homo sapiens) (UniProt Q96GD4); assay: Inhibition of AuroraB at 10 uM
[8] = molecular target: Proto-oncogene tyrosine-protein kinase Src (Homo sapiens) (UniProt P12931); assay: Inhibition of SRC at 10 uM
Sequence of Proto-oncogene tyrosine-protein kinase Src (Homo sapiens) (P12931 2-536 limits assumed): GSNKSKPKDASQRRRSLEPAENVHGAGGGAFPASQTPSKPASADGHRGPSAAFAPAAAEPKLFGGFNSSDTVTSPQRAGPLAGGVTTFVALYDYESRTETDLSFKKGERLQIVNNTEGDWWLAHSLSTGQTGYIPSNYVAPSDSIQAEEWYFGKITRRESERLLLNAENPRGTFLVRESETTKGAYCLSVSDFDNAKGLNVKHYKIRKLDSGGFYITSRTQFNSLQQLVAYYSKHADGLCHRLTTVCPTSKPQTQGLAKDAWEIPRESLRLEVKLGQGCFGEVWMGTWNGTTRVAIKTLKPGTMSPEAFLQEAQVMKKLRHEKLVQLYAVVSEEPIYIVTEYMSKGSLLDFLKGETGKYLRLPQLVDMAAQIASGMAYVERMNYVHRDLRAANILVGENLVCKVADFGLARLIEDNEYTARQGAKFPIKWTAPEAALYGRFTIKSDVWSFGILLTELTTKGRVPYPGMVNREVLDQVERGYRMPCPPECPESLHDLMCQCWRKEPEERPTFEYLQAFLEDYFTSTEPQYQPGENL

[9] = tested on: Serine/threonine-protein kinase B-raf (Homo sapiens), P15056 [V600E]; assay: Inhibition of BRAF V600E mutant at 10 uM
[10] = molecular target: Vascular endothelial growth factor receptor 2 (Homo sapiens) (UniProt P35968); assay: Inhibition of VEGFR2 at 10 uM
Sequence of Vascular endothelial growth factor receptor 2 (Homo sapiens) (P35968 whole entry): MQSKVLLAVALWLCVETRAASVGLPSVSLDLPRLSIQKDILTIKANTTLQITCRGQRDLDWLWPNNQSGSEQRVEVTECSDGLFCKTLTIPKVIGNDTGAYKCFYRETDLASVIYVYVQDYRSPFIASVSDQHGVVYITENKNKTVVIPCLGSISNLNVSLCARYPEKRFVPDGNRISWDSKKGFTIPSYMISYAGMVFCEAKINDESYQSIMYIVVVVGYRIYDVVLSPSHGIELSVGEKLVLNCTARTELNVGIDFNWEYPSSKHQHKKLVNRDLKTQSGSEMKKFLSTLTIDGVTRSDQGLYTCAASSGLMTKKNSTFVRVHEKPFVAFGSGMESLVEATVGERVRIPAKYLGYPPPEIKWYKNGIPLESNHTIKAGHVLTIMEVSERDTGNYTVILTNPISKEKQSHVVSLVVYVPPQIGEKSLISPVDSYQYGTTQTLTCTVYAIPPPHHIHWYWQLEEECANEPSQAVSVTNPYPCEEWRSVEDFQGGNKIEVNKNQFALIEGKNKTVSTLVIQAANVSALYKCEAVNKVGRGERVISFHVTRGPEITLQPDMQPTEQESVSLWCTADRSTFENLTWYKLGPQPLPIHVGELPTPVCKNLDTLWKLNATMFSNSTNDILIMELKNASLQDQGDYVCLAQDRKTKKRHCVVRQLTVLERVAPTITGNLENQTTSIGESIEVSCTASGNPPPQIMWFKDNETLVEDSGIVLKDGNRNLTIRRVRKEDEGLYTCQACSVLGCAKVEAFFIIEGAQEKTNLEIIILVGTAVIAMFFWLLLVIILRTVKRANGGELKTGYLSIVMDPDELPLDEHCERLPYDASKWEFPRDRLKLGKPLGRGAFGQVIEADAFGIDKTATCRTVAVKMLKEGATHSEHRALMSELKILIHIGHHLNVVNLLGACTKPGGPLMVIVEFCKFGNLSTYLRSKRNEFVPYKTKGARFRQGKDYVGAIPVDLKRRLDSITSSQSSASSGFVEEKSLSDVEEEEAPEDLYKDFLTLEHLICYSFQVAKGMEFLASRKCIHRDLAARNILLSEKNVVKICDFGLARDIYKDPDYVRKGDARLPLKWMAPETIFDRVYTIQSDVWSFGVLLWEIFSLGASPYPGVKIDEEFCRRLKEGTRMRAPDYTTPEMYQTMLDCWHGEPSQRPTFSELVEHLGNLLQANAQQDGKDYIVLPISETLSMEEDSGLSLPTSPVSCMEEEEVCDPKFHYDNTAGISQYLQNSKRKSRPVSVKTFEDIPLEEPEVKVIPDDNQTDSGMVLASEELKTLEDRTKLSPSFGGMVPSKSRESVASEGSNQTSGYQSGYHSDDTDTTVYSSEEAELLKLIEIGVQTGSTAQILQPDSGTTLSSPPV

[11] = molecular target: Insulin receptor (Homo sapiens) (UniProt P06213); assay: Inhibition of INSR at 10 uM
Sequence of Insulin receptor (Homo sapiens) (P06213 28-758 limits assumed): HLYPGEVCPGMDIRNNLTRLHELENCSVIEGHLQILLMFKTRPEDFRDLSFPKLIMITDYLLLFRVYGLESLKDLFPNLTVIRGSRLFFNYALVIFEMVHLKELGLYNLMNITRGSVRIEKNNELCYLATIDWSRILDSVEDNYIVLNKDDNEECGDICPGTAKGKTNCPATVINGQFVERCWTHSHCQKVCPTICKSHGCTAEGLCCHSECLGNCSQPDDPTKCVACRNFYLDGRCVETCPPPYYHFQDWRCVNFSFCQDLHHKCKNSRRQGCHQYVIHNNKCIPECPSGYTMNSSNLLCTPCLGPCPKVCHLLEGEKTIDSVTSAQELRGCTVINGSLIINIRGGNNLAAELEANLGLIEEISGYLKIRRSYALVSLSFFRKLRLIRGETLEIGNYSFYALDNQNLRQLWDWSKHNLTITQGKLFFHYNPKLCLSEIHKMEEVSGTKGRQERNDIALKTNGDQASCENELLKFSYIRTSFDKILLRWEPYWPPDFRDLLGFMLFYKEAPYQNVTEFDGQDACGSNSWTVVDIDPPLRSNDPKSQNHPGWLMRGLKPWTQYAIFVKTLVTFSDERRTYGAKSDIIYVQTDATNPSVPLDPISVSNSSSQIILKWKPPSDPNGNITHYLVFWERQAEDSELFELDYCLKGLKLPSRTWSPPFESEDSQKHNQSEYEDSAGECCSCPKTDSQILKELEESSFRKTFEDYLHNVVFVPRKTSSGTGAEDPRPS
Sequence of Insulin receptor (Homo sapiens) (P06213 763-1382 limits assumed): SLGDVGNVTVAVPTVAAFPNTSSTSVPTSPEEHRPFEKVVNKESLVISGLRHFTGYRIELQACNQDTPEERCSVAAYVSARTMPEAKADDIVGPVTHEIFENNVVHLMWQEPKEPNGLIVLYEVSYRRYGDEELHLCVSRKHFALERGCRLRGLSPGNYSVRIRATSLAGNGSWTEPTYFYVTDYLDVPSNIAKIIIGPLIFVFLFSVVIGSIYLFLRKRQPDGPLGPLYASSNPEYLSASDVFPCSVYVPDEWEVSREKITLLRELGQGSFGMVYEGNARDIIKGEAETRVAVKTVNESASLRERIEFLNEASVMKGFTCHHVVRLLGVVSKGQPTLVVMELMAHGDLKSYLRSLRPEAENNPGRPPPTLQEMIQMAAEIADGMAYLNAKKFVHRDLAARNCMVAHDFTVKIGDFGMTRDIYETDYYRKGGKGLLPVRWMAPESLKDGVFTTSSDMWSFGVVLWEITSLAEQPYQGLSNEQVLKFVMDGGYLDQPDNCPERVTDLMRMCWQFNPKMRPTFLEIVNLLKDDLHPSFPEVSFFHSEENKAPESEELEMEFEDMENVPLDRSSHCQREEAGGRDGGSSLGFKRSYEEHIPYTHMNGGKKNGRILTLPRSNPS

[12] = molecular target: Insulin-like growth factor 1 receptor (Homo sapiens) (UniProt P08069); assay: Inhibition of IGF1R at 10 uM
[13] = molecular target: Hepatocyte growth factor receptor (Homo sapiens) (UniProt P08581); assay: Inhibition of MET at 10 uM
[14] = molecular target: Focal adhesion kinase 1 (Homo sapiens) (UniProt Q05397); assay: Inhibition of FAK at 10 uM
[15] = molecular target: Serine/threonine-protein kinase PLK1 (Homo sapiens) (UniProt P53350); assay: Inhibition of PLK1 at 10 uM
[16] = molecular target: Tyrosine-protein kinase receptor UFO (Homo sapiens) (UniProt P30530); assay: Inhibition of AXL at 10 uM
[17] = molecular target: Serine/threonine-protein kinase N1 (Homo sapiens) (UniProt Q16512); assay: Inhibition of PRK1 at 10 uM
Sequence of Serine/threonine-protein kinase N1 (Homo sapiens) (Q16512 2-942 limits assumed): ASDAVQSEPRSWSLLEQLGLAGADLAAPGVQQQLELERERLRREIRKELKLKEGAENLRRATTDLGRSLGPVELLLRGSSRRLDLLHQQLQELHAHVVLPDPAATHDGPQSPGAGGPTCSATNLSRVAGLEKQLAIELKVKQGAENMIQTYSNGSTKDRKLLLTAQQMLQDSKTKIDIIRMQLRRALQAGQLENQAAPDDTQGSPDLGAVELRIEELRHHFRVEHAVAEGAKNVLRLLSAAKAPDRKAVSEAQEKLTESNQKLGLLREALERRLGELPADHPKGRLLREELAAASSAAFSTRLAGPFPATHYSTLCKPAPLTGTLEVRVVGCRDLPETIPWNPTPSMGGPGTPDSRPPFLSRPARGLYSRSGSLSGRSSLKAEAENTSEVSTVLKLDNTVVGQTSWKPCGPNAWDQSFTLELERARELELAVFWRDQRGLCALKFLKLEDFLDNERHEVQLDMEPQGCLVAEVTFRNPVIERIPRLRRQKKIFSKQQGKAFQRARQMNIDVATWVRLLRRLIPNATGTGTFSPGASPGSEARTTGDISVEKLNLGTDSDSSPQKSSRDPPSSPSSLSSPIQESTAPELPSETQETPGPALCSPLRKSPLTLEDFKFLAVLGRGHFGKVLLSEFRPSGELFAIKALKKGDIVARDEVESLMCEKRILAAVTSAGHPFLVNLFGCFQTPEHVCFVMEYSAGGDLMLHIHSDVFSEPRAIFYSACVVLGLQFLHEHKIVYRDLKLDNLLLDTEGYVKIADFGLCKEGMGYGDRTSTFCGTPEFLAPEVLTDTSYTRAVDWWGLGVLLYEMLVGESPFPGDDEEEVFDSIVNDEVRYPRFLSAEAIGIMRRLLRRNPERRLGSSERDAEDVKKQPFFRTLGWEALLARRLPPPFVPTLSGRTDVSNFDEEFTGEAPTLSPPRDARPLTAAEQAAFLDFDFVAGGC

[18] = molecular target: Casein kinase II subunit alpha (Homo sapiens) (UniProt P68400); assay: Inhibition of CK2alpha1 at 10 uM

T1 sequence (Q16539 whole entry): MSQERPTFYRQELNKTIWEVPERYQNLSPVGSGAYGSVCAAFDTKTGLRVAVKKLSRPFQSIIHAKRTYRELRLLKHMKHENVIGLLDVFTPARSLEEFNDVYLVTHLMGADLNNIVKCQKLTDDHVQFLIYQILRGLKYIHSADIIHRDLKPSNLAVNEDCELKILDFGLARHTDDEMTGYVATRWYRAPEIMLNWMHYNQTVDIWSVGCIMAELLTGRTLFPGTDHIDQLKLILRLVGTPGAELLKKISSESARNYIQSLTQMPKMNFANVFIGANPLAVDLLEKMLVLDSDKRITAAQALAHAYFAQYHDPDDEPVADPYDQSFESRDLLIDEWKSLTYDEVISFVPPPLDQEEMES

CC1(C)OC[C@H](COc2ccc3c(c2)C(=O)c2ccc(Nc4ccccc4N)cc2CC3)O1
30 nM: IC50 [1]
inactive: inhibition [3] | inhibition [4] | inhibition [5] | inhibition [6] | inhibition [7] | inhibition [8] | inhibition [9] | inhibition [10] | inhibition [11] | inhibition [12] | inhibition [13] | inhibition [14] | inhibition [15] | inhibition [16] | inhibition [17] | inhibition [18]
190 nM: IC50 [2]

O=C1c2ccc(Nc3ccc(F)cc3F)cc2CCc2cc(OC[C@H](O)CO)ccc21
inactive: inhibition [3] | inhibition [4] | inhibition [5] | inhibition [6] | inhibition [7] | inhibition [8] | inhibition [9] | inhibition [10] | inhibition [11] | inhibition [12] | inhibition [13] | inhibition [14] | inhibition [15] | inhibition [16] | inhibition [17] | inhibition [18]
30 nM: IC50 [1]
10400 nM: IC50 [2]

COc1ccc2c(c1)C(=O)c1ccc(Nc3ccc(F)c(C)c3)cc1CC2
1900 nM: IC50 [2]
40 nM: IC50 [1]
inactive: inhibition [3] | inhibition [4] | inhibition [5] | inhibition [6] | inhibition [7] | inhibition [8] | inhibition [9] | inhibition [10] | inhibition [11] | inhibition [12] | inhibition [13] | inhibition [14] | inhibition [15] | inhibition [16] | inhibition [17] | inhibition [18]

Nc1ccccc1Nc1ccc2c(c1)CCc1c(OC[C@H](O)CO)cccc1C2=O
40 nM: IC50 [1]
78800 nM: IC50 [2]
inactive: inhibition [3] | inhibition [4] | inhibition [5] | inhibition [6] | inhibition [7] | inhibition [8] | inhibition [9] | inhibition [10] | inhibition [11] | inhibition [12] | inhibition [13] | inhibition [14] | inhibition [15] | inhibition [16] | inhibition [17] | inhibition [18]

COc1ccc2c(c1)C(=O)c1ccc(Nc3ccc(C(F)(F)F)cc3N)cc1CC2
900 nM: IC50 [1]
inactive: inhibition [3] | inhibition [4] | inhibition [5] | inhibition [6] | inhibition [7] | inhibition [8] | inhibition [9] | inhibition [10] | inhibition [11] | inhibition [12] | inhibition [13] | inhibition [14] | inhibition [15] | inhibition [16] | inhibition [17] | inhibition [18]
25500 nM: IC50 [2]

Nc1ccccc1Nc1ccc2c(c1)CCc1ccc(OC[C@H](O)CO)cc1C2=O
80 nM: IC50 [2]
inactive: inhibition [3] | inhibition [4] | inhibition [5] | inhibition [6] | inhibition [7] | inhibition [8] | inhibition [9] | inhibition [10] | inhibition [11] | inhibition [12] | inhibition [13] | inhibition [14] | inhibition [15] | inhibition [16] | inhibition [17] | inhibition [18]
20 nM: IC50 [1]

O=C1c2ccc(Nc3ccc(F)cc3F)cc2CCc2cc(OC[C@@H](O)CO)ccc21
5 nM: IC50 [1]
inactive: inhibition [3] | inhibition [4] | inhibition [5] | inhibition [6] | inhibition [7] | inhibition [8] | inhibition [9] | inhibition [10] | inhibition [11] | inhibition [12] | inhibition [13] | inhibition [14] | inhibition [15] | inhibition [16] | inhibition [17] | inhibition [18]
5200 nM: IC50 [2]

CC1(C)OC[C@@H](CCOc2ccc3c(c2)C(=O)c2ccc(Nc4ccc(F)cc4F)cc2CC3)O1
320 nM: IC50 [2]
inactive: inhibition [3] | inhibition [4] | inhibition [5] | inhibition [6] | inhibition [7] | inhibition [8] | inhibition [9] | inhibition [10] | inhibition [11] | inhibition [12] | inhibition [13] | inhibition [14] | inhibition [15] | inhibition [16] | inhibition [17] | inhibition [18]
10 nM: IC50 [1]

COc1ccc2c(c1)C(=O)c1ccc(Nc3ccc(F)cc3Cl)cc1CC2
40 nM: IC50 [1]
5400 nM: IC50 [2]
inactive: inhibition [3] | inhibition [4] | inhibition [5] | inhibition [6] | inhibition [7] | inhibition [8] | inhibition [9] | inhibition [10] | inhibition [11] | inhibition [12] | inhibition [13] | inhibition [14] | inhibition [15] | inhibition [16] | inhibition [17] | inhibition [18]
